Results published in patent publication US8822469B2, “Pyrrolo[2,3-B]pyrazines useful as inhibitors of ATR kinase” (Vertex Pharmaceuticals Incorporated, priority 2011, dated 2014).

Each compound was assayed against T1, full-length ATR (Homo sapiens, UniProt Q13535) (assay: ATR Inhibition Assay (radioactive-phosphate incorporation)). Conditions: Ki(app); 5 nM full-length ATR, 10 μM [γ-33P]ATP, 800 μM target peptide, 25° C.
T1 construct: Assays were carried out at 25° C. in the presence of 5 nM full-length ATR
T1 sequence (Q13535 whole entry): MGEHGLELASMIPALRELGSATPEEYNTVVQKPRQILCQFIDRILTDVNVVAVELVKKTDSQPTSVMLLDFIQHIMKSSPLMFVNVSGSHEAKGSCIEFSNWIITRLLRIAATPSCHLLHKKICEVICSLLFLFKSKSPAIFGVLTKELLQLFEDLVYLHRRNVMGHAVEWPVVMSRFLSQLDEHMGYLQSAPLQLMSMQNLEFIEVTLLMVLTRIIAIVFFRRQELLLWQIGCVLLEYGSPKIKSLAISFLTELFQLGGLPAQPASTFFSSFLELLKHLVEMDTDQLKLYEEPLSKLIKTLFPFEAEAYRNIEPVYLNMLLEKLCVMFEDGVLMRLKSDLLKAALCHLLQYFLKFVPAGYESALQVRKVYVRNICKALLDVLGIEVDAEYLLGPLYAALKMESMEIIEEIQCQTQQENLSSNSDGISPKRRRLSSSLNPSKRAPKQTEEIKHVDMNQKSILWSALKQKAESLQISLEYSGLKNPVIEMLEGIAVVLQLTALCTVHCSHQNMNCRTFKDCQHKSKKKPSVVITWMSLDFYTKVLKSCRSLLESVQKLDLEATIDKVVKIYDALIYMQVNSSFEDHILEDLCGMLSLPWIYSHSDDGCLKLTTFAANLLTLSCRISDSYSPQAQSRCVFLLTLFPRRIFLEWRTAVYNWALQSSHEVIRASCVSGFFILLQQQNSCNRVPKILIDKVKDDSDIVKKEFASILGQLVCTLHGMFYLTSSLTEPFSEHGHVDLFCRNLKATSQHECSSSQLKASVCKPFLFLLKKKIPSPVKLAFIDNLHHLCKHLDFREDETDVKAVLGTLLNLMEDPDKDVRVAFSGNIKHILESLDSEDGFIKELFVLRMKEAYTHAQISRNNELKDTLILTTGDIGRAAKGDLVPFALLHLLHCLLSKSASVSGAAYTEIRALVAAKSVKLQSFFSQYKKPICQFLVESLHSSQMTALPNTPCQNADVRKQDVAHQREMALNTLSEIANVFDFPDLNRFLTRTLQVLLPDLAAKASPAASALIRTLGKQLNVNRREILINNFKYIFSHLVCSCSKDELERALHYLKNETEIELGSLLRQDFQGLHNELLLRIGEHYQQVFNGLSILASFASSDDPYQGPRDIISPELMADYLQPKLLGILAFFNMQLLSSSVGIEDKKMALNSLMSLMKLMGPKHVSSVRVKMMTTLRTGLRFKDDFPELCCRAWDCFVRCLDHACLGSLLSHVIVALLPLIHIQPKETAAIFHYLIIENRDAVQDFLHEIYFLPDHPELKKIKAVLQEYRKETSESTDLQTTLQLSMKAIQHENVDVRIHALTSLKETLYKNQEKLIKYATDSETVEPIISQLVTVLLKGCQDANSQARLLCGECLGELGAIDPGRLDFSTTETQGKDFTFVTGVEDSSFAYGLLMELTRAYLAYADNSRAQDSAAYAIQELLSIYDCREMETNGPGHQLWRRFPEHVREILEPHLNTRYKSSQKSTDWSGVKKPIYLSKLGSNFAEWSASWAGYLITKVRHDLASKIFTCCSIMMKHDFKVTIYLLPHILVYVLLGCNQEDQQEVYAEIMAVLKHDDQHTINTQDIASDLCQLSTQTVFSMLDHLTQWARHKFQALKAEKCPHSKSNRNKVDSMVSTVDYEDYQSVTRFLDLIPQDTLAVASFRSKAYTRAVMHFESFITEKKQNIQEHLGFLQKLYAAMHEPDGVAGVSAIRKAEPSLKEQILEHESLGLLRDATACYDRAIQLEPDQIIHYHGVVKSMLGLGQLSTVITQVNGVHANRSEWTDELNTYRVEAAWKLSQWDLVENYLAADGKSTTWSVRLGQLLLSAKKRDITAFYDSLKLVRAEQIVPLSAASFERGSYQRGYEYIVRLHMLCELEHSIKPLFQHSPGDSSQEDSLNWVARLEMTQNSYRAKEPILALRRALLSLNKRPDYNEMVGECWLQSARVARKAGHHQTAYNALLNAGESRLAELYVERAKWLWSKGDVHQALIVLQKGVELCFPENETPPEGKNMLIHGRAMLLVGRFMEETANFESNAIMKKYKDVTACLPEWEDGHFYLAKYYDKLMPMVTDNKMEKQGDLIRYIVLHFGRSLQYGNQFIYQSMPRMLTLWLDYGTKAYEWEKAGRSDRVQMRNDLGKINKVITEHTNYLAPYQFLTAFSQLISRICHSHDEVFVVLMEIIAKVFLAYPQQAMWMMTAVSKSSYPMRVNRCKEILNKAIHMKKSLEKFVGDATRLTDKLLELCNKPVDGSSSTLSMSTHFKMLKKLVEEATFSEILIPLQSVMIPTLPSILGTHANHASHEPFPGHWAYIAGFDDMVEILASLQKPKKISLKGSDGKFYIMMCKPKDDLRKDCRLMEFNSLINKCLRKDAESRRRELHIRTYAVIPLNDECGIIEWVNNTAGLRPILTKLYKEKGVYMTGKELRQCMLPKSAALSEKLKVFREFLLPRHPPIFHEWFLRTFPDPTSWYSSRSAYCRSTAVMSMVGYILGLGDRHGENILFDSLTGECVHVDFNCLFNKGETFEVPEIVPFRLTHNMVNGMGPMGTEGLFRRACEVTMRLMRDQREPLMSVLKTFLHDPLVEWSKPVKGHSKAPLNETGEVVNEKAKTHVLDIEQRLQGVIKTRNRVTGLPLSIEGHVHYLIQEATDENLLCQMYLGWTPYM
Format: biochemical
Experimental: Compounds were screened for their ability to inhibit ATR kinase using a radioactive-phosphate incorporation assay. Assays were carried out in a mixture of 50 mM Tris/HCl (pH 7.5), 10 mM MgCl2 and 1 mM DTT. Final substrate concentrations were 10 μM [γ-33P]ATP (3mCi 33P ATP/mmol ATP, Perkin Elmer) and 800 μM target peptide (ASELPASQPQPFSAKKK).
Assays were carried out at 25° C. in the presence of 5 nM full-length ATR. An assay stock buffer solution was prepared containing all of the reagents listed above, with the exception of ATP and the test compound of interest. 13.5 μL of the stock solution was placed in a 96 well plate followed by addition of 2 μL of DMSO stock containing serial dilutions of the test compound (typically starting from a final concentration of 15 μM with 3-fold serial dilutions) in duplicate (final DMSO concentration 7%). The plate was pre-incubated for 10 minutes at 25° C. and the reaction initiated by addition of 15 μL [γ-33P]ATP (final concentration 10 μM).
The reaction was stopped after […] by the addition of 30 μL 0.1M phosphoric acid containing 2 mM ATP. A multiscreen phosphocellulose filter 96-well plate (Millipore, Cat no. MAPHN0B50) was pretreated with 100 μL 0.2M phosphoric acid prior to the addition of 45 μL of the stopped assay mixture. The plate was washed with 5×200 μL 0.2M phosphoric acid. After drying, 100 μL Optiphase ‘SuperMix’ liquid scintillation cocktail (Perkin Elmer) was added to the well prior to scintillation counting (1450 Microbeta Liquid Scintillation Counter, Wallac).
After removing mean background values for all of the data points, Ki(app) data were calculated from non-linear regression analysis of the initial rate data using the Prism software package (GraphPad Prism version 3.0cx for Macintosh, GraphPad Software, San Diego Calif., USA).

CC(C)S(=O)(=O)c1ccc(-c2cnc3[nH]cc(NC(=O)c4ccccc4)c3n2)cc1 [Compound I-1, N-(2-(4-(isopropylsulfonyl)phenyl)-5H-pyrrolo[2,3-b]pyrazin-7-yl)benzamide] and CC(CCO)S(=O)(=O)c1ccc(-c2cnc3[nH]cc(NC(=O)c4ccccc4)c3n2)cc1 (stereo not drawn) [Compound I-8] cannot be ordered by Ki: no more than 10 nM for the first, no more than 10 nM for the second.

CC(C)S(=O)(=O)c1ccc(-c2cnc3[nH]cc(NC(=O)c4cccc(N)c4)c3n2)cc1 [Compound I-2, 3-amino-N-[2-(4-isopropylsulfonylphenyl)-5H-pyrrolo[2,3-b]pyrazin-7-yl]benzamide] and CC(C)S(=O)(=O)c1ccc(-c2cnc3[nH]cc(NC(=O)c4cccc(Cl)c4)c3n2)cc1 [Compound I-13] cannot be ordered by Ki: no more than 10 nM for the first, 10 to 100 nM for the second.

CC(C)S(=O)(=O)c1ccc(-c2cnc3[nH]cc(NC(=O)c4ccc(N)cc4)c3n2)cc1 [Compound I-3, 4-amino-N-[2-(4-isopropylsulfonylphenyl)-5H-pyrrolo[2,3-b]pyrazin-7-yl]benzamide] and CC(C)S(=O)(=O)c1ccc(-c2cnc3[nH]cc(NC(=O)c4ccc(Cl)cc4)c3n2)cc1 [Compound I-16, 4-chloro-N-[2-(4-isopropylsulfonylphenyl)-5H-pyrrolo[2,3-b]pyrazin-7-yl]benzamide] fall in the same range of Ki: 10 to 100 nM for the first, 10 to 100 nM for the second.

CNCc1ccc(C(=O)Nc2c[nH]c3ncc(-c4ccc(S(=O)(=O)C(C)C)cc4)nc23)cc1 [Compound I-4, N-[2-(4-isopropylsulfonylphenyl)-5H-pyrrolo[2,3-b]pyrazin-7-yl]-4-(methylaminomethyl)benzamide] and CNCc1cccc(C(=O)Nc2c[nH]c3ncc(-c4ccc(S(=O)(=O)C(C)C)cc4)nc23)c1 [Compound I-6, N-[2-(4-isopropylsulfonylphenyl)-5H-pyrrolo[2,3-b]pyrazin-7-yl]-3-(methylaminomethyl)benzamide] cannot be ordered by Ki: no more than 10 nM for the first, no more than 10 nM for the second.

CC(C)S(=O)(=O)c1ccc(-c2cnc3[nH]cc(NC(=O)c4ccc(CN[C@H]5CCOC5)cc4)c3n2)cc1 [Compound I-5, N-[2-(4-isopropylsulfonylphenyl)-5H-pyrrolo[2,3-b]pyrazin-7-yl]-4-[[[(3S)-tetrahydrofuran-3-yl]amino]methyl]benzamide] and CC(C)S(=O)(=O)c1ccc(-c2cnc3[nH]cc(NC(=O)c4ccc(O)cc4)c3n2)cc1 [Compound I-18, 4-hydroxy-N-[2-(4-isopropylsulfonylphenyl)-5H-pyrrolo[2,3-b]pyrazin-7-yl]benzamide] cannot be ordered by Ki: no more than 10 nM for the first, no more than 10 nM for the second.

First: CC(C)S(=O)(=O)c1ccc(-c2cnc3[nH]cc(NC(=O)c4cccc(C(=O)O)c4)c3n2)cc1 [Compound I-7, 3-[[2-(4-isopropylsulfonylphenyl)-5H-pyrrolo[2,3-b]pyrazin-7-yl]carbamoyl]benzoic acid]
Second: CC(C)S(=O)(=O)c1ccc(-c2cnc3[nH]cc(NC(=O)c4cccc(CN)c4)c3n2)cc1 [Compound I-12, 3-(aminomethyl)-N-[2-(4-isopropylsulfonylphenyl)-5H-pyrrolo[2,3-b]pyrazin-7-yl]benzamide]
The Ki of the first is higher: 100 to 500 nM for the first, 10 to 100 nM for the second. The second binds more tightly here.

First: CC(C)C(=O)Nc1c[nH]c2ncc(-c3ccc(S(=O)(=O)C(C)C)cc3)nc12 [Compound I-9, N-(2-(4-(isopropylsulfonyl)phenyl)-5H-pyrrolo[2,3-b]pyrazin-7-yl)isobutyramide]
Second: CC(C)S(=O)(=O)c1ccc(-c2cnc3[nH]cc(NC(=O)c4ccncc4)c3n2)cc1 [Compound I-17, N-[2-(4-isopropylsulfonylphenyl)-5H-pyrrolo[2,3-b]pyrazin-7-yl]pyridine-4-carboxamide]
The Ki of the first is higher: 100 to 500 nM for the first, 10 to 100 nM for the second. The second binds more tightly here.

Compared with CC(C)S(=O)(=O)c1ccc(-c2cnc3[nH]cc(NC(=O)Cc4ccccc4)c3n2)cc1 [Compound I-10, N-[2-(4-isopropylsulfonylphenyl)-5H-pyrrolo[2,3-b]pyrazin-7-yl]-2-phenyl-acetamide], CC(C)S(=O)(=O)c1ccc(-c2cnc3[nH]cc(NC(=O)c4ccccc4O)c3n2)cc1 [Compound I-14, 2-hydroxy-N-(2-(4-(isopropylsulfonyl)phenyl)-5H-pyrrolo[2,3-b]pyrazin-7-yl)benzamide] is lower in Ki: 100 to 500 nM for the first, no more than 10 nM for the second.

Compared with CC(C)S(=O)(=O)c1ccc(-c2cnc3[nH]cc(NC(=O)c4ccccc4F)c3n2)cc1 [Compound I-15, 2-fluoro-N-[2-(4-isopropylsulfonylphenyl)-5H-pyrrolo[2,3-b]pyrazin-7-yl]benzamide], CC(C)S(=O)(=O)c1ccc(-c2cnc3[nH]cc(NS(=O)(=O)c4ccccc4)c3n2)cc1 [Compound I-19] is higher in Ki: 10 to 100 nM for the first, 100 to 500 nM for the second.

CC(C)S(=O)(=O)c1ccc(-c2cnc3[nH]cc(NC(=O)c4ccc(N5CCC(N)CC5)cc4)c3n2)cc1 [Compound I-20, 4-(4-amino-1-piperidyl)-N-[2-(4-isopropylsulfonylphenyl)-5H-pyrrolo[2,3-b]pyrazin-7-yl]benzamide] and CC(C)S(=O)(=O)c1ccc(-c2cnc3[nH]cc(NC(=O)c4ccc(N5CC[C@H](N)C5)cc4)c3n2)cc1 [Compound I-22, 4-[(3S)-3-aminopyrrolidin-1-yl]-N-[2-(4-isopropylsulfonylphenyl)-5H-pyrrolo[2,3-b]pyrazin-7-yl]benzamide] cannot be ordered by Ki: 10 to 100 nM for the first, no more than 10 nM for the second.

CC(C)S(=O)(=O)c1ccc(-c2cnc3[nH]cc(NC(=O)c4cccc(C5CNCCN5)c4)c3n2)cc1 (stereo not drawn) [Compound I-21, N-[2-(4-isopropylsulfonylphenyl)-5H-pyrrolo[2,3-b]pyrazin-7-yl]-3-piperazin-2-yl-benzamide] and CC(C)S(=O)(=O)c1ccc(-c2cnc3[nH]cc(NC(=O)c4ccc5c(c4)CNCC5)c3n2)cc1 [Compound I-25, N-[2-(4-isopropylsulfonylphenyl)-5H-pyrrolo[2,3-b]pyrazin-7-yl]-1,2,3,4-tetrahydroisoquinoline-7-carboxamide] cannot be ordered by Ki: 10 to 100 nM for the first, no more than 10 nM for the second.

CC(C)S(=O)(=O)c1ccc(-c2cnc3[nH]cc(NC(=O)c4ccc(N5CCC[C@@H](N)C5)cc4)c3n2)cc1 [Compound I-23, 4-[(3R)-3-amino-1-piperidyl]-N-[2-(4-isopropylsulfonylphenyl)-5H-pyrrolo[2,3-b]pyrazin-7-yl]benzamide] and CC(C)S(=O)(=O)c1ccc(-c2cnc3[nH]cc(NC(=O)c4ccc5c(c4)CNC5)c3n2)cc1 [Compound I-24, N-[2-(4-isopropylsulfonylphenyl)-5H-pyrrolo[2,3-b]pyrazin-7-yl]isoindoline-5-carboxamide] cannot be ordered by Ki: no more than 10 nM for the first, no more than 10 nM for the second.

CC(C)S(=O)(=O)c1ccc(-c2cnc3[nH]cc(NC(=O)c4cc5c(s4)CCNC5)c3n2)cc1 [Compound I-26, N-[2-(4-isopropylsulfonylphenyl)-5H-pyrrolo[2,3-b]pyrazin-7-yl]-4,5,6,7-tetrahydrothieno[3,2-c]pyridine-2-carboxamide] and CC(C)S(=O)(=O)c1ccc(-c2cnc3[nH]cc(NC(=O)c4cc5c(s4)CNCC5)c3n2)cc1 [Compound I-27, N-[2-(4-isopropylsulfonylphenyl)-5H-pyrrolo[2,3-b]pyrazin-7-yl]-4,5,6,7-tetrahydrothieno[2,3-c]pyridine-2-carboxamide] cannot be ordered by Ki: no more than 10 nM for the first, no more than 10 nM for the second.

With COc1ccccc1C(=O)Nc1c[nH]c2ncc(-c3ccc(S(=O)(=O)C(C)C)cc3)nc12 [Compound I-11, N-[2-(4-isopropylsulfonylphenyl)-5H-pyrrolo[2,3-b]pyrazin-7-yl]-2-methoxy-benzamide] the “ATR Inhibition Ki” value was “none”.
